According to US9586948B2, “Inhibitors of IRAK4 activity” (MERCK SHARP & DOHME CORP., priority 2012, dated 2017):

What follows are molecules tested against GST tagged IRAK4 (Homo sapiens (Human), UniProt Q9NWZ3) (assay: Determination of IRAK4 kinase activity (IMAP fluorescence polarization)). Conditions: 0.5 nM GST tagged IRAK4, 100 nM fluorescent peptide substrate RP7030, 100 μM ATP, 30 minutes at 25° C.
Format: biochemical
Method: The kinase activity of IRAK4 is determined by its ability to catalyze the phosphorylation of a fluorescent polypeptide substrate. The extent of phosphorylation is measured using IMAP technology (Molecular Devices) where the phosphorylated fluorescent substrate binds to the large M(III)-based nanoparticles which reduces the rotational speed of the substrate and thus increases its fluorescent polarization (FP).
Procedure: A 20 μl reaction mixture contains 10 mM TriHCl, pH 7.2, 0.5 nM GST tagged IRAK4 (SignalChem), 100 nM fluorescent peptide substrate (RP7030, Molecular Devices), 100 μM ATP, 1 mM DTT, 1 mM MgCl2, and 0.01% Tween 20. The reaction is initiated by the addition of ATP. After incubation for 30 minutes at 25° C., 60 μl of Progressive IMAP Reagent (Molecular Devices) is added to stop the reaction. Change in RP7030's FP is determined by a FP reader (Analyst HT, LJL BioSystems).

GST tagged IRAK4, sequence (Q9NWZ3 whole entry): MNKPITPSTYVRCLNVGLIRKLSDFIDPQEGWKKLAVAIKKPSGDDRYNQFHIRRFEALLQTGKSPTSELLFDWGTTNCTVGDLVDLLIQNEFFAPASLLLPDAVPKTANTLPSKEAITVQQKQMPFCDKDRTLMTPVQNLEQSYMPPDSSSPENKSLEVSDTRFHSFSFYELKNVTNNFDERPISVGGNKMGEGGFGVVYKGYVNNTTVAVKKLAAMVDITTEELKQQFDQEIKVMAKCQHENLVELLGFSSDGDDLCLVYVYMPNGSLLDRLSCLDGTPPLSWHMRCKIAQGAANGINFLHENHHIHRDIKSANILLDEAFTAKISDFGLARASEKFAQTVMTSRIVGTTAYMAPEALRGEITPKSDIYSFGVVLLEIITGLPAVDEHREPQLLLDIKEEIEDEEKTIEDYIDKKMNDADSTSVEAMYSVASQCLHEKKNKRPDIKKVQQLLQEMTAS

| IC50 [µM] | SMILES |
| --- | --- |
| 4.97 | Cn1cc(NC(=O)c2cccc(-c3ccnc(NCC4CC4)c3)n2)c(C(=O)NCCc2ccccn2)n1 [Example 38, 2′-((cyclopropylmethyl)amino)-N-(1-methyl-3-((2-(pyridin-2-yl)ethyl)carbamoyl)-1H-pyrazol-4-yl)-[2,4′-bipyridine]-6-carboxamide] |
| 0.212 | Cn1cc(NC(=O)c2cccc(-c3cccnc3)n2)c(C(N)=O)n1 [Example 12, N-(3-carbamoyl-1-methyl-1H-pyrazol-4-yl)-[2,3′-bipyridine]-6-carboxamide] |
| 0.201 | CNC(=O)c1cccc(-c2cccc(C(=O)Nc3cn(C)nc3C(N)=O)n2)c1 [Example 24, N-(3-carbamoyl-1-methyl-1H-pyrazol-4-yl)-6-(3-(methylcarbamoyl)phenyl)picolinamide] |
| 0.127 | Cn1cc(NC(=O)c2cccc(-c3ccnc(NCC(F)(F)F)c3)n2)c(C(N)=O)n1 [Example 18, N-(3-carbamoyl-1-methyl-1H-pyrazol-4-yl)-2′-((2,2,2-trifluoroethyl)amino)-[2,4′-bipyridine]-6-carboxamide] |
| 2.67 | Cn1cc(NC(=O)c2cccc(-c3ccnc(NCC4CC4)c3)n2)c(C(=O)NCCc2cnccn2)n1 [Example 44, 2′-((cyclopropylmethyl)amino)-N-(1-methyl-3-((2-(pyrazin-2-yl)ethyl)carbamoyl)-1H-pyrazol-4-yl)-[2,4′-bipyridine]-6-carboxamide] |
| 0.094 | Cn1cc(NC(=O)c2cccc(-c3ccc(C4CC4)nc3)n2)c(C(N)=O)n1 [Example 28, N-(3-carbamoyl-1-methyl-1H-pyrazol-4-yl)-6′-cyclopropyl-[2,3′-bipyridine]-6-carboxamide] |
| 2.43 | Cn1cc(NC(=O)c2cccc(-c3ccnc(NCC4CC4)c3)n2)c(C(=O)NCc2nncs2)n1 [Example 48, N-(3-(((1,3,4-thiadiazol-2-yl)methyl)carbamoyl)-1-methyl-1H-pyrazol-4-yl)-2′-((cyclopropylmethyl)amino)-[2,4′-bipyridine]-6-carboxamide] |
| 2.19 | CN(C)CCCCCNC(=O)c1nn(C)cc1NC(=O)c1cccc(-c2ccnc(NCC3CC3)c2)n1 [Example 37, 2′-((cyclopropylmethyl)amino)-N-(3-((5-(dimethylamino)pentyl)carbamoyl)-1-methyl-1H-pyrazol-4-yl)-[2,4′-bipyridine]-6-carboxamide] |
| 0.535 | CN(C)CCCNC(=O)c1nn(C)cc1NC(=O)c1cccc(-c2ccnc(NCC3CC3)c2)n1 [Example 40, 2′-((cyclopropylmethyl)amino)-N-(3-((3-(dimethylamino)propyl)carbamoyl)-1-methyl-1H-pyrazol-4-yl)-[2,4′-bipyridine]-6-carboxamide] |
| 2.91 | CN1CCN(C(=O)c2nn(C)cc2NC(=O)c2cccc(-c3ccnc(NCC4CC4)c3)n2)CC1 [Example 39, 2′-((cyclopropylmethyl)amino)-N-(1-methyl-3-(4-methylpiperazine-1-carbonyl)-1H-pyrazol-4-yl)-[2,4′-bipyridine]-6-carboxamide] |
| 0.134 | Cn1cc(NC(=O)c2cccc(C3=CCCOC3)n2)c(C(N)=O)n1 [Example 27, N-(3-carbamoyl-1-methyl-1H-pyrazol-4-yl)-6-(5,6-dihydro-2H-pyran-3-yl)picolinamide] |
| 0.426 | Cn1cc(NC(=O)c2cccc(C3=CCOCC3)n2)c(C(N)=O)n1 [Example 30, N-(3-carbamoyl-1-methyl-1H-pyrazol-4-yl)-6-(3,6-dihydro-2H-pyran-4-yl)picolinamide] |
| 2.26 | Cn1cc(NC(=O)c2cccc(-c3cccc(OC(F)(F)F)c3)n2)c(C(N)=O)n1 [Example 21, N-(3-carbamoyl-1-methyl-1H-pyrazol-4-yl)-6-(3-(trifluoromethoxy)phenyl)picolinamide] |
| 0.637 | COc1cccc(-c2cccc(C(=O)Nc3cn(C)nc3C(N)=O)n2)c1 [Example 13, N-(3-carbamoyl-1-methyl-1H-pyrazol-4-yl)-6-(3-methoxyphenyl)picolinamide] |
| 0.62 | Cn1cc(NC(=O)c2cccc(-c3cnccc3Cl)n2)c(C(N)=O)n1 [Example 31, N-(3-carbamoyl-1-methyl-1H-pyrazol-4-yl)-4′-chloro-[2,3′-bipyridine]-6-carboxamide] |
